# Patent publication US4994485A, “Thio compounds having fungicidal activity” (Duphar International Research B.V., priority 1986, dated 1991)
# How the values were obtained:
# [1] = system: Pyrenophora graminea; test: In vitro test on activity against Pyrenophora graminea; format: cell-based; settings: 48 hours, 20° C., read-out: % growth inhibition of the fungus
# Experimental: In vitro test on activity against Pyrenophora graminea.
# The compound to be tested is processed in a culture medium consisting of 1% by weight of glucose, 0.2% by weight of a yeast extract (marmite), 0.5% by weight of a protein (pepton), 2.5% by weight of agar-agar, and 95.8% by weight of water, in petri dishes in concentrations of 3 and 10 ppm. The petri dishes are inoculated with the plant-pathogenic fungus Pyrenophora graminea and then kept at a temperature of 20° C. After 48 hours the growth-inhibiting activity of the compounds is determined visually. For comparison, the known substance (b) (see EXAMPLE XV) is also tested.
# [2] = system: soil-borne and seed-borne pathogenic micro-organisms; test: Fungicidal activity in practice (general statement); settings: in words
# [3] = system: warm-blooded living beings; test: Toxicity with respect to warm-blooded living beings (general statement); settings: in words
# [4] = Acute oral toxicity (lethal dose) in male mice; settings: mouse, in vivo, acute mortality, mg/kg of body weight
# Experimental: Toxicity with respect to warm-blooded living beings.
# The LD50 is determined by orally administering the substance to be tested to male mice and determining the acute mortality. In Table C below, the LD50 is recorded in mg/kg of body weight.
# For comparison, the known compound (b) (see EXAMPLE XV) is also tested.
# [5] = system: Fusarium culmorum; test: Protection of seedlings against plant pathogenic seed fungus by seed treatment (wheat); format: in vivo; settings: wheat seed infested with Fusarium culmorum; 3 g composition (10% by weight in kaolin) per kg of seed; after three weeks, 8°-12° C.; untreated 67
# Experimental: Test with respect to the protection of seedlings against a plant pathogenic seed fungus, namely Fusarium culmorum, by means of a seed treatment.
# Wheat seed, infested with Fusarium culmorum, is treated with the substance to be tested in the form of a composi tion in a quantity of 3 g per kg of seed. The composition is obtained by pulverising the substance to be tested and then intimately mixing with kaolin in a concentration of 10% by weight. The seed thus treated is sown in a tray containing soil which is placed in a Wisconsin tank with a bottom temperature of 8°-12° C. After three weeks the number of emerged and healthy plants is determined. The emergence of healthy plants from untreated seed serves as control. For comparison, the known substances 2-methylsulphinyl-4-methyl-5-nitrothiazole (a), 2-methylsulphinyl-3-nitrothiophene (b) and 2-ethylsulphinyl-3-nitro-5-acetylthiophene (c) mentioned hereinbefore are also tested. In the examples, the numbers of the compounds refer to the specification.
smiles,measurement,setting,value
"C[S+]([O-])c1sccc1[N+](=O)[O-] (stereo not drawn) [(b), 2-methylsulphinyl-3-nitrothiophene, reference compound]",inhibition at 3 ppm,[1]; 3 ppm,0%
same,inhibition at 10 ppm,[1]; 10 ppm,37%
same,activity,[2],leaves to be desired in practice
same,toxicity with respect to warm-blooded living beings,[3],undesired toxicity
same,LD50,[4],31.6 mg/kg
same,"Percentage of emerged, healthy plants",[5],75%
